The numbers were not newly measured in patent US9855260B2, “Quinolinone derivatives” (GlaxoSmithKline LLC, priority 2011, dated 2018), which cites them from elsewhere.

The series deals with ob/ob and db/db mice. Conditions: 8 day administration.

Consider `NC(=O)c1ncn([C@@H]2O[C@H](CO)[C@@H](O)[C@H]2O)c1N` [AICAR, 5-aminoimidazole-4-carboxamide-1(beta)-D-ribofuranoside], for which the reduces blood glucose is recorded as 35%.
